Experiments:
extracellular matrix = assay: alterations in extracellular matrix of tight-skin mouse; format: in vivo, Tsk/+ mice; settings: tight-skin mouse (Tsk/+); abstract statement, no data shown
[1] = test system: monocytes/macrophages (CD64); settings: Tsk/+ mice, IRF5D 1 mg/kg/d subcutaneously, 21 d; Tsk/+ vs. Tsk/+ + IRF5D p<0.025; mean ± SD, n=3, 10 images per antibody; ref [21]; cited from earlier work
neutrophils (NIMP) = settings: Tsk/+ mice, IRF5D 1 mg/kg/d subcutaneously, 21 d; Tsk/+ vs. Tsk/+ + IRF5D p<0.025; mean ± SD, n=3, 10 images per antibody; ref [21]; cited from earlier work

For Ac-ELDWDADDIRLQIDNPD-NH2 [IRF5D], the “alterations in extracellular matrix” value (extracellular matrix) is given as “reduced alterations in extracellular matrix”, the “number of monocytes/macrophages (CD64) in the heart” value [1] is given as “decreased” and the “number of neutrophils (NIMP) in the heart” value (neutrophils (NIMP)) is given as “decreased”.
